Data taken from patent US9458196B2, “Synthetic peptides capable of binding to influenza hemagglutinin protein” (priority 2012, dated 2016).

Tested on: HA proteins from five different viral strains H1N1, H5N1, H9N2, H3N2 and H14N5
Assay type: biochemical, influenza virus

Sequence | ability to block pH triggered shape changes / low pH induced association of HA proteins
AERPKVRGQAGRMN [LPF54] | ability to block pH triggered shape changes
KEFNNLEKR [PF42] | ability to block pH triggered shape changes
KEFSEVEGR [PF41] | ability to block pH triggered shape changes
PGDFNDYE [PF13] | ability to block pH triggered shape changes
PYDVPDYA [PF12] | ability to block pH triggered shape changes
PYDVPDYE [PF11] | ability to block pH triggered shape changes
TKRSQQTVIP [PF31] | ability to block pH triggered shape changes
TSRSQQTVIP [PF32] | ability to block pH triggered shape changes
